Experimental data published in patent US20150368248A1, “2-SUBSTITUTED-6-BIARYLMETHYLAMINO-9-CYCLOPENTYL-9H-PURINE DERIVATIVES, USE THEREOF AS MEDICAMENTS, AND PHARMACEUTICAL COMPOSITIONS” (UNIVERZITA PALACKEHO V OLOMOUCI, priority 2013, published 2015).

How the values were obtained:
CDK5/p35 = molecular target: T1, CDK5/p35 (Homo sapiens, UniProt Q00535); assay: Kinase inhibition assay, recombinant kinase, [γ-33P]ATP; assay type: biochemical; details: read-out: Residual kinase activity, CDK5
T1 construct: purchased ProQinase GmbH (Freiburg, Germany)
T1 sequence (Q00535 whole entry): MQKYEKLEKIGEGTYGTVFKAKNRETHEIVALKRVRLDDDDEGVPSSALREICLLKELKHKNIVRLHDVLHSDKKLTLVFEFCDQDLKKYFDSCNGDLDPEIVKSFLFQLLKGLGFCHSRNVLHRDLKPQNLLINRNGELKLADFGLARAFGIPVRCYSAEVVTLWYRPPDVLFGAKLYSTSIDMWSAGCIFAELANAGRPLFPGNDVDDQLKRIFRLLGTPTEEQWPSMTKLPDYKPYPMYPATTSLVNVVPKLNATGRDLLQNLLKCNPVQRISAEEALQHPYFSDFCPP
T1 sequence (Q15078 whole entry partner): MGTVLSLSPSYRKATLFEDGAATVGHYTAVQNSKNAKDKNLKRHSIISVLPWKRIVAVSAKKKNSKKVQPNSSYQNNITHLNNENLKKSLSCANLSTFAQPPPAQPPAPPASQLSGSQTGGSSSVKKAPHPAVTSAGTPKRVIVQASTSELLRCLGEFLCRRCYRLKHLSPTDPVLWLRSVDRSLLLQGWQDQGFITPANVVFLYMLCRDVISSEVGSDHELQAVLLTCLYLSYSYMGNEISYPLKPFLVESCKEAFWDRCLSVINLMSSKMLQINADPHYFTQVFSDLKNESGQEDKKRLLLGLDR
Method: (§1) CDK2/Cyclin E kinase was produced in Sf9 insect cells via baculoviral infection and purified on a NiNTA column (Qiagen). CDK5/p35, CDK7Cyclin H/MAT1 and CDK9/Cyclin T1 was purchased from ProQinase GmbH. The kinase reactions were assayed with 1 mg/mL histone H1 (for CDK2 and CDK5) or (YSPTSPS)2KK peptide (for CDK7 and CDK9) in the presence of 15/0.15/1.5/1.5 μM ATP (for CDK2/CDK5/CDK7CDK9), 0.05 μCi [γ-^33P]ATP and of the test compound in a final volume of 10 μL, all in a reaction buffer (60 mM HEPES-NaOH, pH 7.5, 3 mM MgCl2, 3 mM MnCl2, 3 μM Na-orthovanadate, 1.2 mM DTT, 2.5 μg/50 μl PEG20,000). The reactions were stopped by adding 5 μL of 3% aq H3PO4. Aliquots were spotted onto P-81 phosphocellulose (Whatman), washed 3× with 0.5% aq H3PO4 and finally air-dried.
(§2) CDK1/cyclin B and CDK2/cyclin E kinases were produced in Sf9 insect cells via baculoviral infection, while CDK5/p35, CDK7/cyclin H/MAT1, and CDK9/cyclin T1 were purchased from ProQinase (Freiburg, Germany) and assayed as described previously (35). The kinase reactions were assayed with 1 mg/ml histone H1 (for CDK2 and CDK5) or (YSPTSPS)2KK peptide (for CDK7 and CDK9) in the presence of 15/0.15/1.5/1.5 […] ATP (for CDK2/CDK5/CDK7CDK9), […] [γ-^33P]ATP and of the test compound in a final volume of […]. The reaction buffer contained 60 mM HEPES-NaOH, pH 7.5, 3 mM MgCl2, 3 mM MnCl2, 3 mM Na-orthovanadate, 1.2 mM DTT, 2.5 mg/50 ml PEG20.000. The reactions were stopped by adding […] of 3% H3PO4. Aliquots were spotted onto P-81 phosphocellulose (Whatman, GE Healthcare Biosciences, Pittsburgh, USA), washed 3 times with 0.5% H3PO4 and finally air-dried. Kinase inhibition was quantified using a FLA-7000 digital image analyzer (Fujifilm, Tokyo, Japan).

CDK7/cyclin H/MAT1 = molecular target: T2, CDK7/cyclin H/MAT1 (Homo sapiens, UniProt P50613); assay: as above; assay type: biochemical; details: read-out: Residual kinase activity, CDK7
T2 construct: purchased ProQinase GmbH (Freiburg, Germany)
T2 sequence (P50613 whole entry): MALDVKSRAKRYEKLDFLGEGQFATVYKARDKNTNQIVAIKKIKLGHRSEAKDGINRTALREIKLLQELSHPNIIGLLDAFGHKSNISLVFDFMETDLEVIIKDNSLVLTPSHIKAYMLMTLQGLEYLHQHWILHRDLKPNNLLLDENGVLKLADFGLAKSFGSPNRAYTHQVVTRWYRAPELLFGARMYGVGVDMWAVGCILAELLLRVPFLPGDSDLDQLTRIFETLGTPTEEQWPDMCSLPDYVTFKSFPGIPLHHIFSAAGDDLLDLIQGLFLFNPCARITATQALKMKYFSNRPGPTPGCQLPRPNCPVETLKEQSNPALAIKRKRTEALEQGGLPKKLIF
T2 sequence (P51946 whole entry partner): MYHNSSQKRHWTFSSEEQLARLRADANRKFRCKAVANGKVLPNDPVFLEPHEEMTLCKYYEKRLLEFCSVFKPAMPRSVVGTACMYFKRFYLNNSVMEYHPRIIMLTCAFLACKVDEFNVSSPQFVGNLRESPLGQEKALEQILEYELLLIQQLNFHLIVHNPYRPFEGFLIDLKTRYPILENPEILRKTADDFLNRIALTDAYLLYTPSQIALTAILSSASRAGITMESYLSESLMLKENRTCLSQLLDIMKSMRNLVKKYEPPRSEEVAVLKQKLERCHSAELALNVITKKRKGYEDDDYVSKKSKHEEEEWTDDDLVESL
T2 sequence (P51948 whole entry partner): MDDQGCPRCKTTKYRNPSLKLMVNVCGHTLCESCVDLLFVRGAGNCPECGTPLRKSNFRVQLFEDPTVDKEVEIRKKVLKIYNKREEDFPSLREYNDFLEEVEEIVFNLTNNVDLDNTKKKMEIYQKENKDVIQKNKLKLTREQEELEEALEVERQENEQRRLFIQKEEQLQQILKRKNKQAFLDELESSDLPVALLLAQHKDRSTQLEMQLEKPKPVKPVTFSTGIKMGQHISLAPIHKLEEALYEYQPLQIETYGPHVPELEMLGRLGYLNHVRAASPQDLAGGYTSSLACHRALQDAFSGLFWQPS
Method: as §1, §2

CDK9/Cyclin T1 = molecular target: T3, CDK9/Cyclin T1 (Homo sapiens, UniProt P50750); assay: as above; assay type: biochemical; details: read-out: Residual kinase activity, CDK9
T3 construct: purchased ProQinase GmbH (Freiburg, Germany)
T3 sequence (P50750 whole entry): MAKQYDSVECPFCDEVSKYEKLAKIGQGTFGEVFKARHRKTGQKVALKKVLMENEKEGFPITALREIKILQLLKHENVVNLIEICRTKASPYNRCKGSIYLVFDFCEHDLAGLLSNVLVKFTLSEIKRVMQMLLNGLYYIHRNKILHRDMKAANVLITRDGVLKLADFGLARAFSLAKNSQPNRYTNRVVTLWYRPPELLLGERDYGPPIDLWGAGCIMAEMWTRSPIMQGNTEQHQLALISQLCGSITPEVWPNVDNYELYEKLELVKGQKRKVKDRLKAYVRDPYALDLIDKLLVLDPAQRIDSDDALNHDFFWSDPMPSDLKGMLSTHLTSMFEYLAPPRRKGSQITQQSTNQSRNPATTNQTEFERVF
T3 sequence (O60563 whole entry partner): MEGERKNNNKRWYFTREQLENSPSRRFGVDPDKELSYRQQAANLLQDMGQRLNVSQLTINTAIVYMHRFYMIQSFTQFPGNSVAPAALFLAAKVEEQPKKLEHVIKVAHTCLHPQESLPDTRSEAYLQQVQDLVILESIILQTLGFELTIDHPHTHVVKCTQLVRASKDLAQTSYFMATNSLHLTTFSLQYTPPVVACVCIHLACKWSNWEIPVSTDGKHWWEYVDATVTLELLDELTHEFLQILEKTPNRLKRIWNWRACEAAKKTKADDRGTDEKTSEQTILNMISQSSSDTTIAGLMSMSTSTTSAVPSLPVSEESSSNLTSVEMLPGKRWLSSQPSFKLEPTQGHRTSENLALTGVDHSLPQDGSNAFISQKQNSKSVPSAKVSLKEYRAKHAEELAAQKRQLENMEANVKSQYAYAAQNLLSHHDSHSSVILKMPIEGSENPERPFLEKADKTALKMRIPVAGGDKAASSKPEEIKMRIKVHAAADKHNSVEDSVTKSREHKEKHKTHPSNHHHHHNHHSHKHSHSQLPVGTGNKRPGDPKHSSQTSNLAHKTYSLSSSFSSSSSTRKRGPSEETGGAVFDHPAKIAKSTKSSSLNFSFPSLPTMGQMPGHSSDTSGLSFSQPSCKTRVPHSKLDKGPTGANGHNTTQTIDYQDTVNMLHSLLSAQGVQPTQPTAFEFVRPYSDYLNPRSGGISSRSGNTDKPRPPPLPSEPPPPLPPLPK
Method: as §1, §2

[1] = tested on: caspase-3/7 activity in Hep3B cell line; assay: One-step cellular caspase-3/7 activity assay; assay type: cell-based, human; details: 24 hours, 0 nM = 1.00
Method: (§3) Measurements of proapoptotic properties of new compounds were based on quantification of enzymatic activities of caspases, concretely caspases-3/7. Activity of cellular caspase-3/7 was measured according to Carrasco et al., 2003, BioTechniques, 34(5): 1064-67. Briefly, Hep3B and PLC/PRF/5 cells were incubated in the densities of 10000 cells/well in a 96-well plate overnight. Next day, the compounds in appropriate concentrations were added and cells were incubated for the 24 hours. After incubation, 3× caspase-3/7 assay buffer (150 mM HEPES pH 7.4, 450 mM NaCl, 150 mM KCl, 30 mM MgCl2, 1.2 mM EGTA, 1.5% Nonidet P40, 0.3% CHAPS, 30% sucrose, 30 mM DTT, 3 mM PMSF) with 150 μM Ac-DEVD-AMC as a substrate (Sigma-Aldrich) was added to the wells and plates were incubated at […]. The caspase-3/7 activity was measured after 6 hours using Fluoroskan Ascent microplate reader (Labsystems) at 346 nm/442 nm (excitation/emission).

[2] = tested on: caspase-3/7 activity in PLC/PRF/5 cell line; assay: One-step cellular caspase-3/7 activity assay; assay type: cell-based, human; details: 24 hours incubation, relative to 0 nM = 1.00
Method: as §3

[3] = tested on: p53-regulated transcription in Arn8 cells; assay: p53-dependent transcriptional activity, β-galactosidase reporter; assay type: cell-based; details: 24 h incubation
Method: Stronger anticancer activity of the compounds is enhanced by its positive impact on stability and activity of the tumour suppressor p53. To measure p53-dependent transcriptional activity, β-galactosidase activity was quantified in the melanoma cell line Arn8, which had been established using stable transfection of cells with a p53-responsive reporter construct pRGCAfoslacZ (Frebung et al., Cancer Res., 52, 1992-6976). Briefly, after 24 h incubation with the inhibitors the Arn8 cells were permeabilized with 0.3% Triton X-100 for 15 min and then 4-methylumbelliferon-β-D-galactopyranoside was added as a substrate to the final concentration of 80 μM. After 1 h the fluorescence of product 4-methylumbelliferon was measured at 355/460 nm (ex/em) with a Fluoroskan Ascent microplate reader (Labsystems). Data in Tab. 8 present that series of 2-substituted-6-biarylmethylamino-9-cyclopentyl-9H-purine derivatives show a dose-dependent activatory effect on p53-regulated transcription, with the maximum impact observed between 100 and 500 nM concentrations for most of prepared compounds (Tab. 8).

CC(C)(O)CNc1nc(NCc2ccc(-c3ccco3)nc2)c2ncn(C3CCCC3)c2n1 [BP117, 1-{9-cyclopentyl-6-[(6-furan-2-yl-pyridin-3-ylmethyl)-amino]-9H-purine-2-ylamino}-2-methyl-propan-2-ol]
remaining activity at 0.1 µM (CDK5/p35; 100 nM): 76.7% | remaining activity at 1 µM (CDK5/p35; 1000 nM): 39.6% | remaining activity at 0.1 µM (CDK7/cyclin H/MAT1; 100 nM): 76.3% | remaining activity at 1 µM (CDK7/cyclin H/MAT1; 1000 nM): 68.3% | remaining activity at 0.1 µM (CDK9/Cyclin T1; 100 nM): 52.7% | remaining activity at 1 µM (CDK9/Cyclin T1; 1000 nM): 23.2% | Relative caspase-3/7 activity in Hep3B cell line ([1]; 200 nM): 0.77 | Relative caspase-3/7 activity in Hep3B cell line ([1]; 400 nM): 0.89 | Relative caspase-3/7 activity in Hep3B cell line ([1]; 800 nM): 1.06 | Relative caspase-3/7 activity in Hep3B cell line ([1]; 1600 nM): 2.00 | Relative caspase-3/7 activity in PLC/PRF/5 cell line ([2]; compound concentration 160 nM): 0.79 | Relative caspase-3/7 activity in PLC/PRF/5 cell line ([2]; compound concentration 320 nM): 1.17 | Relative caspase-3/7 activity in PLC/PRF/5 cell line ([2]; compound concentration 640 nM): 2.60 | Relative caspase-3/7 activity in PLC/PRF/5 cell line ([2]; compound concentration 1280 nM): 2.99 | Concentration of maximum activation [3]: 950 nM | melting point: 128 to 129 °C
